Measured values taken from PMC10817531, “Chlorinated Enyne Fatty Acid Amides from a Marine Cyanobacterium: Discovery of Taveuniamides L-M and Pharmacological Characterization of Taveuniamide F as a GPCR Antagonist with CNR1 Selectivity” (Marine Drugs, 2023).
pIC50: −log10 of the molar value. “And” between values parts separate entries of the source, which are not always exact repeats. Identical values can stand only once.

What was measured:
Format in all cases: cell-based
NPSR1b = target: T1, NPSR1b (Homo sapiens, UniProt Q6W5P4); assay: PathHunter β-arrestin GpcrMAX assay
T1 construct: β-galactosidase enzyme fragment for EFC (ProLink by own knowledge); host or cells: U2OS
T1 sequence (Q6W5P4 1-377 isoform Q6W5P4-4): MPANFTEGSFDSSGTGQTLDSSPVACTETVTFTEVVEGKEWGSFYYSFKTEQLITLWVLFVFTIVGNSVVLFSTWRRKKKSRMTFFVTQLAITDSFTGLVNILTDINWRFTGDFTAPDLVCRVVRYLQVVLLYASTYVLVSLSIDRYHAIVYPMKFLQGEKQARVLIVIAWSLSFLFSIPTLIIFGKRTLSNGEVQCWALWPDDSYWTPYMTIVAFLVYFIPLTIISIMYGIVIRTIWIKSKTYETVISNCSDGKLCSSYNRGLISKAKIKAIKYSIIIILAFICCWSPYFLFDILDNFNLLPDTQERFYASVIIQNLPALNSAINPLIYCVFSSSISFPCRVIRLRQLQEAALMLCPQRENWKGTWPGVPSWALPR
Experimental: (§1) GpcrMAX panel biosensor assays were used to characterize taveuniamide F (4, 20 µM) (agonist and antagonist mode). The experiments were carried out by DiscoveRx Corporation (Fremont, CA, USA) as described before, using PathHunter β-arrestin enzyme fragment complementation (EFC) technology.
(§2) Dose–response curves were obtained by subjecting taveuniamide F (4) to a secondary antagonist screen utilizing ten GPCR biosensor assays (Arrestin) against the following targets: GPR119, NPSR1b, HTR2C, CCR9, CHRM4, GPR120, HTR2A, GPR103, CNR1, and CNR2. Stably transfected HEK293 cells expressing GPR119, U2OS cells expressing NPSR1b, HTR2C and HTR2A, and CHO-K1 cells expressing the rest of the mentioned receptors, were incubated with 4 for 30 min. The assays were performed at 10-point concentrations using 3-fold serial dilutions in duplicate, where the highest concentration was 50 µM.

HTR2A = target: T2, HTR2A (Homo sapiens, UniProt P28223); assay: PathHunter β-arrestin GpcrMAX assay
T2 construct: host or cells: U2OS
T2 sequence (P28223 whole entry): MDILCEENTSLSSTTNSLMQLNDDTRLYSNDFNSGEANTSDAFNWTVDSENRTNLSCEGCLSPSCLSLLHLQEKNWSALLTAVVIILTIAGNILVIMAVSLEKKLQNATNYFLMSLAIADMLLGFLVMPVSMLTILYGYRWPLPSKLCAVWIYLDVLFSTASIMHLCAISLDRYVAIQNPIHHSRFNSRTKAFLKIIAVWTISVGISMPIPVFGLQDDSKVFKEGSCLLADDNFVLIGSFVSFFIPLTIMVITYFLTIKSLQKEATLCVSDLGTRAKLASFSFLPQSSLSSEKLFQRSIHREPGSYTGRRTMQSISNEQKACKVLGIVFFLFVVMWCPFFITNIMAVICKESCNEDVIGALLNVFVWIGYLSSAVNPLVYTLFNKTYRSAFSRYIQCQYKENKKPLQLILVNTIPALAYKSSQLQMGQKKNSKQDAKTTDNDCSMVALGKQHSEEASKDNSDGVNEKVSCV
Experimental: as §1, §2

HTR2C = target: T3, HTR2C (Homo sapiens, UniProt P28335); assay: PathHunter β-arrestin GpcrMAX assay
T3 construct: β-galactosidase enzyme fragment for EFC (ProLink by own knowledge); host or cells: U2OS
T3 sequence (P28335 33-458): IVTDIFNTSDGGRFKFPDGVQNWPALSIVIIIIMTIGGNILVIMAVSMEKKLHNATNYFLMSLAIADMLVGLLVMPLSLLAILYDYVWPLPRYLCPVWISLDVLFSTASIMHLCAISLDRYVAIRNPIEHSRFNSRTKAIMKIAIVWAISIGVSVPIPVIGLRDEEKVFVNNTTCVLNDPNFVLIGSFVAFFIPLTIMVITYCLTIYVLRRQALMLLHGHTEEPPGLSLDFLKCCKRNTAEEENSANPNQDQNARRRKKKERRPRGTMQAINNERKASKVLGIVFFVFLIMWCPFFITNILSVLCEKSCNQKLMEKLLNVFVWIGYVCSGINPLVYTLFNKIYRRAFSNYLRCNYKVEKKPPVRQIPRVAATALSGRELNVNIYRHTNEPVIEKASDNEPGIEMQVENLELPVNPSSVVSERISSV
Experimental: as §1, §2

CNR2 = target: T4, CNR2 (Homo sapiens, UniProt P34972); assay: PathHunter β-arrestin GpcrMAX assay
T4 construct: purchased DiscoveRx (Eurofins) gpcrMAX PathHunter β-arrestin panel
T4 sequence (P34972 whole entry): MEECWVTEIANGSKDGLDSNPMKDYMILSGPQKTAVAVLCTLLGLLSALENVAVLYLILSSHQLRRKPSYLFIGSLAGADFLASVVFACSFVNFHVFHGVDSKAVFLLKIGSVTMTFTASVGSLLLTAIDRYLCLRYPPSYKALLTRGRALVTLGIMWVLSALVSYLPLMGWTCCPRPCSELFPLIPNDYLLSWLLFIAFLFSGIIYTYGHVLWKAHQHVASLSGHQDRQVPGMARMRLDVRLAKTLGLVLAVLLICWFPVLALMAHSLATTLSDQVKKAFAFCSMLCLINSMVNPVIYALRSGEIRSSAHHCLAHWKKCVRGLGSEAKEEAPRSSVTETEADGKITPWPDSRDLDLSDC
Experimental: as §1, §2

GPR103 = target: T5, GPR103 (Homo sapiens, UniProt Q96P65); assay: PathHunter β-arrestin GpcrMAX assay
T5 construct: host or cells: CHO-K1
T5 sequence (Q96P65 1-431): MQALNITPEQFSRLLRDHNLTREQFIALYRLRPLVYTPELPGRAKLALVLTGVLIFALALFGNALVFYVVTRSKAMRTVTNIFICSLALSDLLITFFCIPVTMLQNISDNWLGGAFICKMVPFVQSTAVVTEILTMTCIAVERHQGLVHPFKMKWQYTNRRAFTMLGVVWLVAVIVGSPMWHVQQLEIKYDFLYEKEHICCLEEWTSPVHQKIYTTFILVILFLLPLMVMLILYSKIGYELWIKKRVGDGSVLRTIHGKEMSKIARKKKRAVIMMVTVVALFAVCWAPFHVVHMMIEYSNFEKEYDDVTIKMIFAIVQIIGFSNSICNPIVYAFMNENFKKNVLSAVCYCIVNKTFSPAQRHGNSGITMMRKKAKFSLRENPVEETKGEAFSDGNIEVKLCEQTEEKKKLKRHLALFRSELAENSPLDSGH
Experimental: as §1, §2

CHRM4 = target: T6, CHRM4 (Homo sapiens, UniProt P08173); assay: PathHunter β-arrestin GpcrMAX assay
T6 construct: host or cells: CHO-K1
T6 sequence (P08173 1-479): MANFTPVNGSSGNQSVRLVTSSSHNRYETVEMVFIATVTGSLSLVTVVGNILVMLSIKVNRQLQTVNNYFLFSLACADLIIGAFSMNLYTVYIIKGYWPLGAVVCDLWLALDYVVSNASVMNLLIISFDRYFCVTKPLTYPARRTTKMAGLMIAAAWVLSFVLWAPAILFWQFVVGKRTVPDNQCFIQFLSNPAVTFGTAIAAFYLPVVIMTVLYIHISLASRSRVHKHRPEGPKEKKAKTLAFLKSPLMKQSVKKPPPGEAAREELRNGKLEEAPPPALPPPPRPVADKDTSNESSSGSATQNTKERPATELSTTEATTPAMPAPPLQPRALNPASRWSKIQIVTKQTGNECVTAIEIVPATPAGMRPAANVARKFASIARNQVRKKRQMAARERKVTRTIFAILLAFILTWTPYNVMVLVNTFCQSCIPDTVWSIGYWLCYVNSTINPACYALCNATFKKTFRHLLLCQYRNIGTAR
Experimental: as §1, §2

MTT cell viability assay = conditions: human, HEK293 cells; 24 h exposure, majority of tested concentrations (below 100 μM)
Experimental: (§3) HEK293 cells were purchased from ATCC (Manassas, VA, USA). They were cultured and maintained in Dulbecco’s modified Eagle medium (DMEM; Invitrogen, Waltham, MA, USA) supplemented with 10% fetal bovine serum (FBS; HyClone, Logan, UT, USA) and 1% antibiotic-antimycotic (Invitrogen) at 37 °C in a humidified atmosphere with 5% CO2. HEK293 cells were seeded in 96-well plates at densities of 15,000 cells per well in 100 μL, respectively. After 16 h of incubation, the cells were treated with 0.5 μL of various concentrations of compounds or a DMSO solvent control. Following 24 h of incubation, cells were treated with 3-(4,5-dimethylthiazol-2-yl)-2,5-diphenyltetrazolium bromide according to the manufacturer’s instructions (Promega, Madison, WI, USA). The experiments were performed as technical triplicates.

HEK293 cells = assay: MTT cell viability assay; conditions: 24 h exposure, 100 μM
Experimental: as §3

[1] = antagonist dose–response, 10-point, U2OS cells, 30 min
[2] = antagonist mode (% inhibition), 20 µM
[3] = antagonist dose–response, 10-point, CHO-K1 cells, 30 min

pIC50 (NPSR1b; [1]): 5.36
inhibition (NPSR1b; [2]): 102% and ≥ 80%
pIC50 (HTR2A; [1]): 5.32
inhibition (HTR2A; [2]): ≥ 80%
inhibition at 20 µM (HTR2A; [2]): 84.9%
pIC50 (HTR2C; [1]): < 4.30
inhibition (HTR2C; [2]): ≥ 80%
inhibition at 20 µM (HTR2C; [2]): 99.1%
inhibition at 20 µM (CNR2): 48.6%
pIC50 (GPR103; [3]): 4.85
inhibition (GPR103; [2]): ≥ 80%
inhibition at 20 µM (GPR103; [2]): 79.8%
pIC50 (CHRM4; [3]): 5.72
inhibition (CHRM4; [2]): ≥ 80%
inhibition at 20 µM (CHRM4; [2]): 98.2%
SMILES: CC(=O)N[C@@H](CCCC#C/C=C/Cl)CCCCCCC(Cl)Cl [Compound 4, taveuniamide F]
viability at 24 h (MTT cell viability assay): 100%
reduction in cell viability (HEK293 cells): 56%
